Experiment [1] has as its target purified human Factor XIa (Homo sapiens (Human), UniProt P03951). Description: Factor XIa enzyme inhibition assay (chromogenic substrate S-2366).
Experiment [2] has as its target purified human plasma kallikrein (Homo sapiens (Human), UniProt P03952). Kind of experiment: Plasma kallikrein enzyme inhibition assay (chromogenic substrate S-2302). The class given is biochemical.
Setting [3] is: read-out: Factor XIa Ki, measured at 25° C.
Where [4] appears, read: measured at 25° C. (no asterisk).

The structures appear in SMILES notation. Counter-ions that a name gives are not always drawn. Like-named read-outs stand apart in the source and are kept apart here. Where only a bound is given, the exact number is not on record here.

Usually Ki stands for a dissociation constant, usually derived from enzyme kinetics or from competition with a known ligand.

purified human plasma kallikrein, sequence (P03952 391-638): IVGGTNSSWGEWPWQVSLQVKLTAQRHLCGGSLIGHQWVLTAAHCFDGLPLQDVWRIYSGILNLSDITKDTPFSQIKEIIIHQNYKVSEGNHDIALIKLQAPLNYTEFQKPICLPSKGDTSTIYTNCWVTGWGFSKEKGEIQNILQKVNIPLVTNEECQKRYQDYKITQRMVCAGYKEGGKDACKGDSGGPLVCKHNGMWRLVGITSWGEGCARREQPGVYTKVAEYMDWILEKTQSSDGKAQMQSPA
purified human plasma kallikrein, sequence (P03952 20-390 partner): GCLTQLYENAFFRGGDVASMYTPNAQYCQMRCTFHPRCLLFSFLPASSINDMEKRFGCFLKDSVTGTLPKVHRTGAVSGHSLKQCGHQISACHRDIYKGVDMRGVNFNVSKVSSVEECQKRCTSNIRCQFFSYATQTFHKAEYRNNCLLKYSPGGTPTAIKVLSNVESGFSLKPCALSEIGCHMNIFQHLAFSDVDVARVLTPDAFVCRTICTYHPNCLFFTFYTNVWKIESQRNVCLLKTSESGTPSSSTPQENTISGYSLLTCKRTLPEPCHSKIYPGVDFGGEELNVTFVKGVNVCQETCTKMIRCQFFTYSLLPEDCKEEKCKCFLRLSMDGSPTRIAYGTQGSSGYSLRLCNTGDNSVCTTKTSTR
purified human Factor XIa, sequence (P03951 388-625): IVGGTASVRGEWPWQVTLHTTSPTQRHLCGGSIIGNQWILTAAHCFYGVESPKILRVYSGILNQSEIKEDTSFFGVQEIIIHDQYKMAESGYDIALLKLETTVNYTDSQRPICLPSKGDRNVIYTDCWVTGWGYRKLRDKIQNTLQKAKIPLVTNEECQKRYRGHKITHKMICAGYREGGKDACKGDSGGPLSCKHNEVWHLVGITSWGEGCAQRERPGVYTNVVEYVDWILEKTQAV
purified human Factor XIa, sequence (P03951 19-387 partner): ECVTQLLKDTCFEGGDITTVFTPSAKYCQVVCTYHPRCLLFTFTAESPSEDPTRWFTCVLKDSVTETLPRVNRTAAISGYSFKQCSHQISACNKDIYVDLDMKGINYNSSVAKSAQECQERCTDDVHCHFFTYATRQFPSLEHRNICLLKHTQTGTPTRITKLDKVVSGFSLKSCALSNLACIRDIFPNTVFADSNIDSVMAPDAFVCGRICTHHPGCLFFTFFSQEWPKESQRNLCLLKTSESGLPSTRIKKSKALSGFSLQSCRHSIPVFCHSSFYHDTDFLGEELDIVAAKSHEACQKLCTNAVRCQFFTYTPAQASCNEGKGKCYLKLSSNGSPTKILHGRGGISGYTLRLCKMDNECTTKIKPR

`COC1CCN(c2cccc3c2CCN(C(=O)C2CC(=O)N(c4cccc(Cl)c4F)C2)C3C(=O)Nc2ccc(C(=O)O)cc2)CC1` (centres unmarked) [Example 260, 4-(2-(1-(3-chloro-2-fluorophenyl)-5-oxopyrrolidine-3-carbonyl)-5-(4-methoxypiperidin-1-yl)-1,2,3,4-tetrahydroisoquinoline-1-carboxamido)benzoic acid, TFA salt]: the Ki came out at 2460 nM in experiment [1] (read-out: Factor XIa Ki, measured at 25° C., TFA salt) and 4750 nM in experiment [2] (measured at 25° C. (no asterisk), TFA salt).

For the compound `COC1CCN(c2cccc3c2CCN(C(=O)[C@H]2CC(c4cccc(Cl)c4F)=NO2)[C@H]3C(=O)Nc2ccc(C(=O)O)cc2F)CC1` (single isomer, unassigned) [Example 244, TFA salt], the figures for the Ki in experiment [1] and in experiment [2] (measured at 37° C. (*)) were 38.7 nM and 635 nM, respectively.

For `COC1CCN(c2cccc3c2CCN(C(=O)[C@H]2CC(c4cccc(Cl)c4F)=NO2)[C@H]3C(=O)Nc2ccccc2F)CC1` (single isomer, unassigned) [Example 236, TFA salt], the Ki was 454 nM in experiment [1] and above 4340 nM in experiment [2] (measured at 37° C. (*)).

Consider `COc1ncccc1-c1cccc2c1CCN(C(=O)c1cn(-c3cccc(Cl)c3F)nn1)C2C(=O)Nc1ccc(C(=O)O)cc1` (centres unmarked) [Example 153, 4-(2-(1-(3-chloro-2-fluorophenyl)-1H-1,2,3-triazole-4-carbonyl)-5-(2-methoxypyridin-3-yl)-1,2,3,4-tetrahydroisoquinoline-1-carboxamido)benzoic acid, TFA salt], for which the Ki in experiment [1] (setting [3]) turned out to be 5.73 nM; in experiment [2] (setting [4]), 62.2 nM.

With `Cn1ccc(-c2cccc3c2CCN(C(=O)c2cn(-c4cccc(Cl)c4F)nn2)C3C(=O)Nc2ccc(C(=O)O)cc2)n1` (centres unmarked) [Example 43, 4-(2-(1-(3-chloro-2-fluorophenyl)-1H-1,2,3-triazole-4-carbonyl)-5-(1-methyl-1H-pyrazol-3-yl)-1,2,3,4-tetrahydroisoquinoline-1-carboxamido)benzoic acid], the values for the Ki in experiment [1] and in experiment [2] (setting [4]) were below 5 nM and 16.2 nM, respectively.

With `COC1CCN(c2cccc3c2CCN(C(=O)c2cn(-c4c(F)ccc(Cl)c4F)cn2)C3C(=O)Nc2ccc(C(=O)O)cc2)CC1` (racemic) [Example 312, 4-(2-(1-(3-chloro-2,6-difluorophenyl)-1H-imidazole-4-carbonyl)-5-(4-methoxypiperidin-1-yl)-1,2,3,4-tetrahydroisoquinoline-1-carboxamido)benzoic acid, TFA salt], the results for the Ki in experiment [1] and in experiment [2] (setting [4]) were below 5 nM and 27.3 nM, respectively.

Turning to `Cc1c(C(=O)N2CCc3c(-c4cncnc4)cccc3C2C(=O)Nc2ccc(-c3ncc[nH]3)cc2)ncn1-c1cccc(Cl)c1F` (centres unmarked) [Example 136, N-(4-(1H-Imidazol-2-yl)phenyl)-2-(1-(3-chloro-2-fluorophenyl)-5-methyl-1H-imidazole-4-carbonyl)-5-(pyrimidin-5-yl)-1,2,3,4-tetrahydroisoquinoline-1-carboxamide, 2 TFA salt], the values for the Ki in experiment [1] (setting [3]) and in experiment [2] (measured at 37° C. (*)) were 6.97 nM and 157 nM, respectively.

Turning to `CN(C)Cc1ccc(-c2cccc3c2CCN(C(=O)c2cn(-c4cccc(Cl)c4F)nn2)C3C(=O)Nc2ccc(C(=O)O)cc2)cc1` (centres unmarked) [Example 154, 4-(2-(1-(3-chloro-2-fluorophenyl)-1H-1,2,3-triazole-4-carbonyl)-5-(4-((dimethylamino)methyl)phenyl)-1,2,3,4-tetrahydroisoquinoline-1-carboxamido)benzoic acid, TFA salt], the inhibition constant (Ki) in experiment [1] (setting [3]) is below 5 nM; in experiment [2] (setting [4]), 5.26 nM.

As to `N#Cc1ccc(-c2cccc3c2CCN(C(=O)c2cn(-c4cccc(Cl)c4F)nn2)[C@H]3C(=O)Nc2ccc(C(=O)O)cc2)cn1` [Example 15, (R)-4-(2-(1-(3-Chloro-2-fluorophenyl)-1H-1,2,3-triazole-4-carbonyl)-5-(6-cyanopyridin-3-yl)-1,2,3,4-tetrahydroisoquinoline-1-carboxamido)benzoic acid, TFA salt], the Ki in experiment [1] (setting [3]) was 9.12 nM; in experiment [2] (setting [4]), 219 nM.

Turning to `Cn1cc2ccc(-c3cccc4c3CCN(C(=O)c3cn(-c5cccc(Cl)c5F)nn3)C4C(=O)Nc3ccc(C(=O)O)cc3)cc2n1` (centres unmarked) [Example 162, 4-(2-(1-(3-chloro-2-fluorophenyl)-1H-1,2,3-triazole-4-carbonyl)-5-(2-methyl-2H-indazol-6-yl)-1,2,3,4-tetrahydroisoquinoline-1-carboxamido)benzoic acid], the results for the Ki in experiment [1] (setting [3]) and in experiment [2] (setting [4]) were below 5 nM and 49.9 nM, respectively.

On to `O=C(O)c1ccc(NC(=O)[C@@H]2c3cccc(-c4cncnc4)c3CCN2C(=O)c2cn(-c3cccc(Cl)c3F)nn2)cc1` [Example 14, (S)-4-(2-(1-(3-Chloro-2-fluorophenyl)-1H-1,2,3-triazole-4-carbonyl)-5-(pyrimidin-5-yl)-1,2,3,4-tetrahydroisoquinoline-1-carboxamido)benzoic acid], for which the Ki in experiment [1] (setting [3]) was below 5 nM; in experiment [2] (setting [4]), 6.27 nM.

`O=C1CCC2(CCN(c3cccc4c3CCN(C(=O)c3cnn(-c5cccc(Cl)c5F)c3)C4C(=O)Nc3ccc(C(=O)O)cc3)CC2)O1` (centres unmarked) [Example 75, 4-(2-(1-(3-chloro-2-fluorophenyl)-1H-pyrazole-4-carbonyl)-5-(2-oxo-1-oxa-8-azaspiro[4.5]-decan-8-yl)-1,2,3,4-tetrahydroisoquinoline-1-carboxamido)benzoic acid, TFA salt]: the Ki in experiment [1] (setting [3]) is below 5 nM; in experiment [2] (setting [4]), 25.8 nM.

Consider `O=C(O)c1ccc(NC(=O)[C@@H]2c3cccc(N4CCOCC4)c3CCN2C(=O)c2cn(-c3cccc(Cl)c3F)nn2)cc1` [Example 90, (S)-4-(2-(1-(3-Chloro-2-fluorophenyl)-1H-1,2,3-triazole-4-carbonyl)-5-morpholino-1,2,3,4-tetrahydroisoquinoline-1-carboxamido)benzoic acid, TFA salt], for which the Ki in experiment [1] (setting [3]) was below 5 nM; in experiment [2] (setting [4]), 5.37 nM.

Regarding `N#Cc1ccc(-c2cccc3c2CCN(C(=O)c2cn(-c4cccc(Cl)c4F)nn2)[C@@H]3C(=O)Nc2ccc(C(=O)O)cc2)cn1` [Example 16, (S)-4-(2-(1-(3-Chloro-2-fluorophenyl)-1H-1,2,3-triazole-4-carbonyl)-5-(6-cyanopyridin-3-yl)-1,2,3,4-tetrahydroisoquinoline-1-carboxamido)benzoic acid, TFA salt], the Ki in experiment [1] (setting [3]) was below 5 nM; in experiment [2] (setting [4]), 4.55 nM.

Regarding `O=C(O)c1ccc(NC(=O)C2c3cccc(-n4cnnc4)c3CCN2C(=O)c2cn(-c3cccc(Cl)c3F)nn2)cc1` (centres unmarked) [Example 249, 4-(2-(1-(3-Chloro-2-fluorophenyl)-1H-1,2,3-triazole-4-carbonyl)-5-(4H-1,2,4-triazol-4-yl)-1,2,3,4-tetrahydroisoquinoline-1-carboxamido)benzoic acid, TFA salt], the Ki in experiment [1] (setting [3]) is below 5 nM; in experiment [2] (measured at 37° C. (*)), 20.4 nM.

Consider `COC1CCN(c2cccc3c2CCN(C(=O)c2cn(-c4cccc(Cl)c4F)cn2)[C@@H]3C(=O)Nc2ccc(C(=O)O)cc2)CC1` [Example 273, (S)-4-(2-(1-(3-chloro-2-fluorophenyl)-1H-imidazole-4-carbonyl)-5-(4-methoxypiperidin-1-yl)-1,2,3,4-tetrahydroisoquinoline-1-carboxamide)benzoic acid, TFA salt], for which the Ki in experiment [1] (setting [3]) is below 5 nM; in experiment [2] (setting [4]), 7.65 nM.

In the case of `O=C(O)c1ccc(NC(=O)C2c3cccc(N4CCC(N5CCCC5=O)CC4)c3CCN2C(=O)c2cnn(-c3cccc(Cl)c3F)c2)cc1` (centres unmarked) [Example 74, 4-(2-(1-(3-chloro-2-fluorophenyl)-1H-pyrazole-4-carbonyl)-5-(4-(2-oxopyrrolidin-1-yl)piperidin-1-yl)-1,2,3,4-tetrahydroisoquinoline-1-carboxamido)benzoic acid, TFA salt], the Ki in experiment [1] (setting [3]) is below 5 nM; in experiment [2] (setting [4]) it was 27.6 nM.

With `COC1CCN(c2cccc3c2CCN(C(=O)c2cn(-c4cccc(Cl)c4F)nn2)[C@H]3C(=O)Nc2ccc(CO)cc2)CC1` [Example 121, (R)-2-(1-(3-Chloro-2-fluorophenyl)-1H-1,2,3-triazole-4-carbonyl)-N-(4-(hydroxymethyl)phenyl)-5-(4-methoxypiperidin-1-yl)-1,2,3,4-tetrahydroisoquinoline-1-carboxamide], the Ki in experiment [1] (setting [3]) stood at 1050 nM; in experiment [2] (measured at 37° C. (*)), 7900 nM.

As for `CC(C)c1nnc2n1CCN(c1cccc3c1CCN(C(=O)c1cn(-c4cccc(Cl)c4F)nn1)C3C(=O)Nc1ccc(C(=O)O)cc1)C2` (centres unmarked) [Example 64, 4-(2-(1-(3-chloro-2-fluorophenyl)-1H-1,2,3-triazole-4-carbonyl)-5-(3-isopropyl-5,6-dihydro-[1,2,4]triazolo[4,3-a]pyrazin-7(8H)-yl)-1,2,3,4-tetrahydroisoquinoline-1-carboxamido)benzoic acid, TFA salt], the Ki was below 5 nM in experiment [1] (setting [3]) and 4.7 nM in experiment [2] (setting [4]).

Take `COC1CCN(c2cccc3c2CCN(C(=O)c2cn(-c4cccc(Cl)c4F)nc2O)C3C(=O)Nc2ccc(C(=O)O)cc2)CC1` (racemic) [Example 264, 4-(2-(1-(3-chloro-2-fluorophenyl)-3-hydroxy-1H-pyrazole-4-carbonyl)-5-(4-methoxypiperidin-1-yl)-1,2,3,4-tetrahydroisoquinoline-1-carboxamido)benzoic acid, TFA salt]: the Ki in experiment [1] is below 5 nM; in experiment [2] (setting [4]) it was 11.1 nM.

For `CN1CCN(c2cccc3c2CCN(C(=O)C2CC(c4cccc(Cl)c4)=NO2)C3C(=O)Nc2ccc(C(=O)O)cc2)CC1` (centres unmarked) [Example 217, 4-(2-(3-(3-chlorophenyl)-4,5-dihydroisoxazole-5-carbonyl)-5-(4-methylpiperazin-1-yl)-1,2,3,4-tetrahydroisoquinoline-1-carboxamido)benzoic acid, 2 TFA salt], the Ki in experiment [1] (setting [3]) was determined as 15.2 nM; in experiment [2] (setting [4]), 3.12 nM.

For the compound `COC1CCN(c2cccc3c2CCN(C(=O)c2cc(-c4cccc(Cl)c4)n[nH]2)C3C(=O)Nc2ccc(C(=O)O)cc2)CC1` (racemic) [Example 311, 4-(2-(3-(3-chlorophenyl)-1H-pyrazole-5-carbonyl)-5-(4-methoxypiperidin-1-yl)-1,2,3,4-tetrahydroisoquinoline-1-carboxamido)benzoic acid, TFA salt], the Ki in experiment [1] came out at 18.4 nM; in experiment [2] (setting [4]), 787 nM.
